Measured values as given in PubChem BioAssay AID1996.
Converted amounts (≈) assume the structure as drawn.

details: buffer; pH 7.4; 200.0 µM

| Structure (SMILES) | solubility kinetic [µg/mL] |
| --- | --- |
| CC(=O)Nc1ccc(N2Cc3ccccc3C2)cc1 | 18.7 (≈ 74.1 µM) |
| CN1CCN(c2ccc(NC(=O)c3ccccc3)cc2)CC1 | > 44.3 |
| Cc1c(C(=O)c2ccccc2)c(=O)n(C)c(=O)n1C | > 38.7 |
| COc1ccc(NC(=S)NC(=O)Cc2ccccc2)cc1 | 19.2 (≈ 63.9 µM) |
| CCOC(=O)Cc1csc(NC(=O)Cc2ccc(Br)cc2)n1 | 5.9 (≈ 15.4 µM) |
| Cc1ccccc1NC(=O)NCc1ccccn1 | > 36.2 |
| CCOc1ccc2oc(C(=O)NCC3CCCO3)c(C)c2c1 (stereo unspecified) | 39.6 (≈ 131 µM) |
| CC(C)c1ccc(OCC(=O)N2CCCN(C)CC2)cc1 | > 43.6 |
| CC(=O)Nc1cccc(C(=O)NC(C)c2ccc(-n3ccnc3)cc2)c1 (stereo unspecified) | 45.5 (≈ 131 µM) |
| OC(C#CCN1CCCC1)(c1ccccc1)c1cccnc1 (stereo unspecified) | > 43.9 |
| CCSc1nnc(NC(=O)c2nc3nc(C)cc(C)n3n2)s1 | > 50.3 |
| CC(C)c1ccccc1NC(=S)NCc1nc2ccccc2[nH]1 | > 48.7 |
| CCCNC(=S)N1CCC(NC(=O)c2ccc(OC)cc2)CC1 | 20.3 (≈ 60.5 µM) |
| CC(=O)Nc1ccc(C(=O)COC(=O)c2cccs2)c(F)c1 | 9.6 (≈ 29.9 µM) |
| Oc1cc2c(cc1CN1CCN(c3ncccn3)CC1)OCO2 | 17.2 (≈ 54.7 µM) |
| Cn1c(CN2CCCCC2)nc2cc([N+](=O)[O-])ccc21 | > 41.1 |
| Cc1ccc(OCCNC(=O)c2ccc3c(c2)OCO3)cc1 | 14.4 (≈ 48.1 µM) |
| COC(=O)c1cc(-c2ccccc2)nc2nc(SC)[nH]c(=O)c12 | 9.8 (≈ 29.9 µM) |
| COc1cccc(CC(=O)OCC(=O)NC2CCCC2)c1 | > 43.7 |
| O=C(O)c1cccc(N=C2NC(=O)C(CO)(CO)S2)c1 | > 44.4 |
| COc1ccc(N(C(C)=O)c2nc3ccccc3[nH]2)cc1 | 38.2 (≈ 136 µM) |

| Structure (SMILES) | solubility kinetic [µg/mL] |
| --- | --- |
| O=C(Nc1ccc(C(=O)c2ccc(C(=O)O)c(C(=O)O)c2)cc1)c1ccccc1 | 57.4 (≈ 147 µM) |
| CC(C)OCc1c(C(=O)Nc2nccs2)oc2ccccc12 | 2.6 (≈ 8.22 µM) |
| CCCC1(CCC)NC(=O)N(CC(=O)N2CCc3ccccc32)C1=O | > 51.5 |
| CCCc1ncc(C(O)c2ccccc2OC)n1C (stereo unspecified) | > 39.1 |
| O=C(COC(=O)c1ccco1)NC12CC3CC(CC(C3)C1)C2 | 2.2 (≈ 7.25 µM) |
| COC(=O)CCNC(=O)c1ccc2[nH]c(C)c(C)c2c1 | > 41.1 |
| O=C1Nc2cc3c(cc2C1=O)sc1ccccc13 | 3.1 (≈ 12.2 µM) |
| O=C(Nc1ccc(F)cc1)OC1CN2CCC1CC2 (stereo unspecified) | > 39.6 |
| CC(C)(C)OC(=O)N1CCC(CNC(=O)c2ccc(F)cc2F)CC1 | 51 (≈ 144 µM) |
| O=C(NC(=O)N1CCCc2ccccc21)c1ccccc1 | 30.2 (≈ 108 µM) |
| COc1ccc(CN(C)C(=O)Cc2c[nH]c3ccccc23)cc1 | 30.4 (≈ 98.6 µM) |
| COc1ccccc1C1CCN(C(=O)c2cccc([N+](=O)[O-])c2)CC1 | 39.5 (≈ 116 µM) |
| O=C(O)Cn1c(=O)c2c(c3ccccc31)CCC2 | > 36.5 |
| O=C(COC(=O)COc1ccccc1)Nc1cccnc1Cl | > 48.1 |
| O=C(c1cc2ccccc2s1)N1CCOCC1 | > 37.1 |
| Cc1ccc(OCCCN2CCOCC2)cc1 | 26.7 (≈ 113 µM) |
| Clc1ccc(NCc2cccnc2)c(Cl)c1 | 29.1 (≈ 115 µM) |
| Cc1ccccc1N1C(=O)c2ccccc2C1O (stereo unspecified) | 35.8 (≈ 150 µM) |
| COc1ccc(C(=O)Nc2nc(C)cc(C)n2)cc1 | > 38.6 |
| Cc1ccc(NC(=O)CCCn2c(=O)oc3ccccc32)c(O)c1 | 12.6 (≈ 38.6 µM) |
| O=C(c1ccc(Cl)s1)N1CCN(S(=O)(=O)c2ccc(Cl)cc2)CC1 | 3.2 (≈ 7.89 µM) |

| Structure (SMILES) | solubility kinetic [µg/mL] |
| --- | --- |
| COc1cccc(OCCn2cc(C=O)c3ccccc32)c1 | 12.2 (≈ 41.3 µM) |
| Cc1ccc(OCC(=O)NCCCNC(=O)c2ccco2)cc1C | > 49.6 |
| Cc1ccc2nsnc2c1NC(=O)c1ccc([N+](=O)[O-])o1 | > 45.6 |
| Cc1ccccc1-n1cc[nH]c1=S | > 28.5 |
| O=C(Cn1ccnc1[N+](=O)[O-])NCc1ccccc1 | > 39 |
| CS(=O)(=O)N(CC(=O)N1CCCC1)Cc1ccc(F)cc1 | > 47.2 |
| O=C(C1CCCCC1)N1CCC(O)(c2ccc(Cl)cc2)CC1 | > 48.3 |
| NC(=O)c1c(NC(=O)c2ccccc2Cl)sc2c1CCC2 | 0.7 (≈ 2.18 µM) |
| OC(c1ccccc1)(c1ccc(Cl)cc1)C1CN2CCC1CC2 (stereo unspecified) | > 49.2 |
| CCCCCCC(Cl)(Cn1ccnc1)c1ccccc1.O=[N+]([O-])O (stereo unspecified) | 35.3 |
| COc1ccc(C2CC(=O)N(c3ccccc3)C3=C2C(=O)CCC3)cc1 (stereo unspecified) | 48.9 (≈ 141 µM) |
| CCCC(=O)Nc1c(-c2cccc(OC)c2)c(=O)c2ccccc2n1C | > 52.6 |
| CC1CCCN(C(=O)C2CC(=O)N(c3ccc(Cl)cc3)C2)C1 (stereo unspecified) | > 48.1 |
| CC1Cc2ccccc2N1CC(=O)NC(=O)NC(C)(C)C (stereo unspecified) | 30.7 (≈ 106 µM) |
| C=CCSc1nc(C)cc(C(=O)OCC)c1C#N | 8.6 (≈ 32.8 µM) |
| CCc1ccc(C(=O)OCC(=O)NC2CCCC2)cc1 | 11.6 (≈ 42.1 µM) |
| O=c1[nH]c(-c2ccccc2)ncc1Oc1ccccc1 | 33.7 (≈ 128 µM) |
| COc1cccc(OC)c1C(=O)Nc1ccncc1 | 19 (≈ 73.6 µM) |
| COc1ccc2c(c1)CCC(C)N2C(=O)C(=O)c1c[nH]c2ccccc12 (stereo unspecified) | 0.6 (≈ 1.72 µM) |
